# Test results: US8466188B2, “Use of spiro-oxindole compounds as therapeutic agents” (Xenon Pharmaceuticals Inc., priority 2006, dated 2013)
row,SMILES,melting point
1,"CC(C)c1nc(CN2C(=O)C3(COc4cc5c(cc43)OCO5)c3ccccc32)co1 (stereo not shown) [Example 10.58, 1′-[(2-isopropyl-1,3-oxazol-4-yl)methyl]spiro[furo[2,3-f][1,3]benzodioxole-7,3′-indol]-2′(1′H)-one]",118 to 120 °C
2,"O=C1N(Cc2ccc(Cl)s2)c2ccc(F)cc2C12COc1cc3c(cc12)OCO3 (stereo not shown) [Example 10.61, 1′-[(5-chloro-2-thienyl)methyl]-5′-fluorospiro[furo[2,3-f][1,3]benzodioxole-7,3′-indol]-2′(1′H)-one]",142 to 144 °C
3,"O=C1N(Cc2ccc(Cl)o2)c2ccccc2C12COc1cc3c(cc12)OCO3 (stereo not shown) [Example 10.62, 1′-[(5-chloro-2-furyl)methyl]spiro[furo[2,3-f][1,3]benzodioxole-7,3′-indol]-2′(1′H)-one]",148 to 150 °C
4,"CN1C(C)(C)CC(O)(CN2C(=O)C3(COc4cc5c(cc43)OCO5)c3ccccc32)CC1(C)C (stereo not shown) [Example 10.63, 1′-[(4-hydroxy-1,2,2,6,6-pentamethylpiperidin-4-yl)methyl]spiro[furo[2,3-f][1,3]benzodioxole-7,3′-indol]-2′(1′H)-one]",210 to 214 °C
5,"O=C1N(Cc2ccc(-c3ccccc3Cl)o2)c2ccccc2C12COc1cc3c(cc12)OCO3 (stereo not shown) [Example 10.64, 1′-{[5-(2-chlorophenyl)-2-furyl]methyl}spiro[furo[2,3-f][1,3]benzodioxole-7,3′-indol]-2′(1′H)-one]",148 to 150 °C
6,"Cc1ccc(CN2C(=O)C3(COc4cc5c(cc43)OCO5)c3ccccc32)o1 (stereo not shown) [Example 10.65, 1′-[(5-methyl-2-furyl)methyl]spiro[furo[2,3-f][1,3]benzodioxole-7,3′-indol]-2′(1′H)-one]",117 to 119 °C
7,"O=C1N(Cc2ccc(Cl)s2)c2ccccc2C12COc1cc3c(cc12)OCO3 (stereo not shown) [Example 10.67, 1′-[(5-chloro-2-thienyl)methyl]spiro[furo[2,3-f][1,3]benzodioxole-7,3′-indol]-2′(1′H)-one]",145 to 146 °C
8,"O=C1N(Cc2sc(C(F)(F)F)cc2O)c2ccccc2C12COc1cc3c(cc12)OCO3 (stereo not shown) [Example 10.68, 1′-{[3-hydroxy-5-(trifluoromethyl)-2-thienyl]methyl}spiro[furo[2,3-f][1,3]benzodioxole-7,3′-indol]-2′(1′H)-one]",225 to 227 °C
9,"O=C1N(Cc2cnc(Cl)s2)c2ccccc2C12COc1cc3c(cc12)OCO3 (stereo not shown) [Example 10.70, 1′[(2-chloro-1,3-thiazol-5-yl)methyl]spiro[furo[2,3-f][1,3]benzodioxole-7,3′-indol]-2′(1′H)one]",195 to 198 °C
10,"O=C1N(Cc2ccc(C(F)(F)F)o2)c2ccccc2C12COc1cc3c(cc12)OCC3 (stereo not shown) [Example 10.71, 1′-{[5-(trifluoromethyl)-2-furyl]methyl}-6,7-dihydrospiro[benzo[1,2-b:4,5-b′]difuran-3,3′-indol]-2′(1′H)-one]",174 to 177 °C
11,"O=C1N(Cc2ccc(C(F)(F)F)s2)c2ccccc2C12COc1cc3c(cc12)OCO3 (stereo not shown) [Example 10.73, 1′-{[5-(trifluoromethyl)-2-thienyl]methyl}spiro[furo[2,3-f][1,3]benzodioxole-7,3′-indol]-2′(1′H)-one]",127 to 130 °C

# The remaining lines, values ahead:
row,melting point,SMILES
1,178 to 180 °C,"COc1cc(C(F)(F)F)sc1CN1C(=O)C2(COc3cc4c(cc32)OCO4)c2ccccc21 (stereo not shown) [Example 10.74, 1′-{[3-methoxy-5-(trifluoromethyl)-2-thienyl]methyl}spiro[furo[2,3-f][1,3]benzodioxole-7,3′-indol]-2′(1′H)-one]"
2,117 to 119 °C,"Cc1cccc2c1C1(COc3cc4c(cc31)OCO4)C(=O)N2Cc1ccc(C(F)(F)F)o1 (stereo not shown) [Example 10.75, 4′-methyl-1′-{[5-(trifluoromethyl)-2-furyl]methyl}spiro[furo[2,3-f][1,3]benzodioxole-7,3′-indol]-2′(1′H)-one]"
3,96 to 98 °C,"Cc1ccc2c(c1)C1(COc3cc4c(cc31)OCO4)C(=O)N2Cc1ccc(C(F)(F)F)o1 (stereo not shown) [Example 10.76, 5′-methyl-1′-{[5-(trifluoromethyl)-2-furyl]methyl}spiro[furo[2,3-f][1,3]benzodioxole-7,3′-indol]-2′(1′H)-one]"
4,167 to 169 °C,"N#Cc1ccc(CN2C(=O)C3(COc4cc5c(cc43)OCO5)c3ccccc32)o1 (stereo not shown) [Example 10.80, 5-[(2′-oxospiro[furo[2,3-f][1,3]benzodioxole-7,3′-indol]-1′(2′H)-yl)methyl]-2-furonitrile]"
5,177 to 179 °C,"CS(=O)(=O)c1ccc(CN2C(=O)C3(COc4cc5c(cc43)OCO5)c3ccccc32)o1 (stereo not shown) [Example 10.81, 1′-{[5-(methylsulfonyl)-2-furyl]methyl}spiro[furo[2,3-f][1,3]benzodioxole-7,3′-indol]-2′(1′H)-one]"
6,247 to 250 °C,"O=C1N(Cc2ccc(=O)[nH]c2)c2ccccc2C12COc1cc3c(cc12)OCO3 (stereo not shown) [Example 10.82, 1′-[(6-oxo-1,6-dihydropyridin-3-yl)methyl]spiro[furo[2,3-f][1,3]benzodioxole-7,3′-indol]-2′(1′H)-one]"
7,115 to 118 °C,"Cn1cc(CN2C(=O)C3(COc4cc5c(cc43)OCO5)c3ccccc32)ccc1=O (stereo not shown) [Example 10.83, 1′-[(1-methyl-6-oxo-1,6-dihydropyridin-3-yl)methyl]spiro[furo[2,3-f][1,3]benzodioxole-7,3′-indol]-2′(1′H)-one]"
8,194 to 197 °C,"O=C1N(Cc2nnc(Cl)s2)c2ccccc2C12COc1cc3c(cc12)OCO3 (stereo not shown) [Example 10.85, 1′-[(5-chloro-1,3,4-thiadiazol-2-yl)methyl]spiro[furo[2,3-f][1,3]benzodioxole-7,3′-indol]-2′(1′H)-one]"
9,95 to 97 °C,"O=C1N(CC2CCN(c3ccccn3)CC2)c2ccccc2C12COc1cc3c(cc12)OCO3 (stereo not shown) [Example 10.86, 1′-[(1-pyridin-2-ylpiperidin-4-yl)methyl]spiro[furo[2,3-f][1,3]benzodioxole-7,3′-indol]-2′(1′H)-one]"
10,78 to 80 °C,"O=C1N(Cc2ccc(C(F)(F)F)o2)c2ccccc2C12COc1cc(OC(F)(F)F)ccc12 (stereo not shown) [Example 10.90, 6-(trifluoromethoxy)-1′-{[5-(trifluoromethyl)-2-furyl]methyl}spiro[1-benzofuran-3,3′-indol]-2′(1′H)-one]"
11,82 to 84 °C,"COc1ccc(CN2C(=O)C3(COc4cc(OC(F)(F)F)ccc43)c3ccccc32)cc1 (stereo not shown) [Example 10.91, 1′-(4-methoxybenzyl)-6-(trifluoromethoxy)spiro[1-benzofuran-3,3′-indol]-2′(1′H)-one]"
12,153 to 154 °C,"O=C1N(CC2CCCCC2)c2ccccc2C12COc1cc3c(cc12)OCO3 (stereo not shown) [Example 10.92, 1′-(cyclohexylmethyl)spiro[furo[2,3-f][1,3]benzodioxole-7,3′-indol]-2′(1′H)-one]"
13,215 to 217 °C,"CS(=O)(=O)N1C(=O)C2(COc3cc4c(cc32)OCO4)c2ccccc21 (stereo not shown) [Example 10.93, 1′-(methylsulfonyl)spiro[furo[2,3-f][1,3]benzodioxole-7,3′-indol]-2′(1′H)-one]"
14,173 to 175 °C,"CC(C)(C)OC(=O)N1CCC(CCN2C(=O)C3(COc4cc5c(cc43)OCO5)c3ccccc32)CC1 (stereo not shown) [Example 10.96, tert-butyl 4-[2-(2′-oxospiro[furo[2,3-f][1,3]benzodioxole-7,3′-indol]-1′(2′H)-yl)ethyl]piperidine-1-carboxylate]"
